Test results published in PubChem BioAssay (NCI).
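Briefly, cells in 96-well plates were exposed to five compound concentrations for 48 h, and endpoints were estimated by linear interpolation. GI50 marks 50% less growth. TGI: concentration producing complete growth inhibition.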

Key:
Assay in all cases: NCI tumour cell line growth inhibition, 48 h
[1] = tested on: KM12 colon
[2] = tested on: SK-OV-3 ovarian
[3] = tested on: SK-MEL-5 melanoma
[4] = tested on: HT29 colon
[5] = tested on: OVCAR-3 ovarian
[6] = tested on: NCI-H460 lung
[7] = tested on: HCC-2998 colon
[8] = tested on: 786-0 renal
[9] = tested on: MCF7 breast

| SMILES | TGI [1] [µM] | TGI [2] [µM] | TGI [3] [µM] | TGI [4] [µM] | TGI [5] [µM] | TGI [6] [µM] | TGI [7] [µM] | TGI [8] [µM] | GI50 [1] [µM] | GI50 [9] [µM] | TGI [9] [µM] | GI50 [2] [µM] | GI50 [3] [µM] | GI50 [4] [µM] | GI50 [5] [µM] | GI50 [6] [µM] | GI50 [8] [µM] | GI50 [7] [µM] |
| --- | --- | --- | --- | --- | --- | --- | --- | --- | --- | --- | --- | --- | --- | --- | --- | --- | --- | --- |
| CC(C)(C)OC1=C(OC(C)(C)C)C(O)(c2ccccc2)C1=O (configuration not stated) | > 100 | > 100 | > 100 | > 100 | > 100 | > 100 | > 100 | > 100 | – | – | – | – | – | – | – | – | – | – |
| O=C(Nc1ccc(Cl)c(Cl)c1)c1cccc(NC2=C(Cl)C(=O)N(Cc3ccccc3)C2=O)c1 | > 100 | > 100 | > 100 | > 100 | > 100 | > 100 | – | > 100 | 69 | 22.5 | 96.1 | > 100 | > 100 | 59.6 | 24.6 | 30.3 | 48.4 | – |
| C[N+](C)(C)CC1CCCC/C1=N\OC(=O)c1ccccc1 (configuration not stated) | > 100 | > 100 | > 100 | > 100 | > 100 | > 100 | > 100 | > 100 | – | – | – | – | – | – | – | – | – | – |
| CN1C(=O)CC(c2cccc(C3CC(=O)N(C)C3=O)n2)C1=O (configuration not stated) | > 100 | > 100 | > 100 | > 100 | > 100 | > 100 | > 100 | > 100 | – | – | – | – | – | – | – | – | – | – |
| O=C(Nc1c(O)[nH]c(=S)[nH]c1=O)c1ccccc1F | > 100 | > 100 | > 100 | > 100 | > 100 | > 100 | – | > 100 | – | – | – | – | – | – | – | – | – | – |
| COc1ccc(C2CC(=O)c3c(O)cc(O)cc3O2)cc1O (configuration not stated) | > 100 | > 100 | > 100 | > 100 | > 100 | > 100 | > 100 | > 100 | – | – | – | – | – | – | – | – | – | – |
| Cc1ccc(S(=O)(=O)N[C@H](C(=O)O)c2ccccc2)cc1 | > 100 | > 100 | > 100 | > 100 | > 100 | > 100 | > 100 | > 100 | – | – | – | – | – | – | – | – | – | – |
| CN(C)c1ccc2c(=O)c3ccccc3oc2n1 | > 100 | > 100 | > 100 | – | > 100 | > 100 | > 100 | > 100 | – | – | – | – | – | – | – | – | – | – |
| O=C(Nc1ccccc1-c1n[nH]c(=S)[nH]c1=O)C(F)(F)F | > 100 | > 100 | > 100 | > 100 | > 100 | > 100 | > 100 | > 100 | – | – | – | – | – | – | – | – | – | – |
| CCOc1ccccc1NC(=O)CC1C(=O)Nc2ccccc2S1=O (configuration not stated) | – | – | > 100 | > 100 | > 100 | > 100 | > 100 | > 100 | – | – | – | – | – | – | – | – | – | – |
| COc1ccc2oc(=O)cc(C(c3ccc[nH]3)c3ccc[nH]3)c2c1 | 11.3 | – | 0.141 | 0.659 | 0.146 | 10.3 | 2.15 | 11.5 | 0.104 | 0.108 | 14.5 | – | 0.08 | 0.104 | 0.0803 | 0.107 | 0.281 | 0.0973 |
| CS/C(=N\C(=S)N(C)C)N(c1ccccc1)c1nc(=[N+](C)C)ss1 | 15.8 | > 100 | – | 11.6 | 22.7 | 25.7 | 28.9 | 39.3 | – | – | – | – | – | – | – | – | – | – |
| O=C(/C=C/c1ccc(OCCCOc2ccc(/C=C/C(=O)c3ccccc3)cc2)cc1)c1ccccc1 | – | – | > 100 | > 100 | > 100 | > 100 | > 100 | > 100 | – | – | – | – | – | – | – | – | – | – |
| O=C(O)C/C(=C\c1ccco1)C(=O)O | > 100 | > 100 | > 100 | > 100 | > 100 | – | – | > 100 | – | – | > 100 | – | – | – | – | – | – | – |
| N#Cc1ccccc1NC(=O)/C(=N\N)C(C(=O)c1ccncc1)C1OC(=O)c2ccccc21 (configuration not stated) | > 100 | > 100 | > 100 | > 100 | > 100 | > 100 | > 100 | > 100 | – | – | – | – | – | – | – | – | – | – |
| COc1ccccc1/C=C(\C#N)c1ccccc1 | > 100 | 84.3 | 40.9 | > 100 | 51.2 | 74.1 | > 100 | 42.5 | – | – | – | – | – | – | – | – | – | – |
| Cc1ccc(NC(=O)c2cc3cc(N=Nc4ccc(Br)cc4)ccc3oc2=O)cc1 | > 100 | > 100 | > 100 | > 100 | – | > 100 | > 100 | > 100 | – | – | – | – | – | – | – | – | – | – |
| Cc1ccc(S(=O)(=O)c2c(N)c3nc4ccccc4n3c3nc4ccccc4nc23)cc1 | > 100 | > 100 | > 100 | > 100 | > 100 | > 100 | > 100 | > 100 | – | – | – | – | – | – | – | – | – | – |
| N=C(N)c1ccc(OCc2cccc(COc3ccc(C(=N)N)cc3)c2)cc1 | – | 50.9 | 4.28 | > 100 | – | 20 | 33.2 | 15.1 | – | 4.5 | 14.9 | 18.4 | 1.96 | 7.64 | – | 4.27 | 4.56 | 11.4 |
| O=C1[C@@H]2C(c3ccccc3Br)=NO[C@@H]2C(=O)N1c1ccc(Cc2ccc(N3C(=O)[C@H]4C(c5ccccc5Br)=NO[C@H]4C3=O)cc2)cc1 | > 100 | > 100 | > 100 | > 100 | > 100 | > 100 | > 100 | > 100 | – | – | – | – | – | – | – | – | – | – |
| COc1cc(C2c3[nH]c4ccccc4c3C[C@H]3COC(=O)N23)cc(OC)c1OC (some centres not stated) | 1.68 | – | – | > 100 | – | – | – | > 100 | – | < 0.01 | – | – | < 0.01 | < 0.01 | < 0.01 | < 0.01 | < 0.01 | < 0.01 |
| O=C(Nc1ccc(Cl)cc1Cl)C1C(=O)N(c2ccc(Cl)cc2Cl)C(=O)/C1=N\Nc1ccc([N+](=O)[O-])cc1[N+](=O)[O-] (configuration not stated) | > 100 | > 100 | > 100 | > 100 | > 100 | > 100 | > 100 | > 100 | – | – | – | – | – | – | – | – | – | – |
| COC(=O)C1=C(c2ccc(OC)c(OC)c2)OC(c2ccc(OC)c(OC)c2)C1 (configuration not stated) | > 100 | 96.7 | 34.3 | > 100 | > 100 | > 100 | > 100 | > 100 | – | – | – | – | – | – | – | – | – | – |
| C/C(CN1C(=O)c2ccccc2C1=O)=N\NS(=O)(=O)c1ccc(C)cc1 | > 100 | > 100 | > 100 | > 100 | > 100 | > 100 | > 100 | > 100 | – | – | – | – | – | – | – | – | – | – |
